# Several values for one entry are separate records, joined by “and”; a condition that tells them apart may be missing. Equal entries are not always repeated. *1 amine or outer side, *2 acyl side, *3 side chain or, on linkers, in order; H or OH if unused. Where a SMILES comes first, the peptide text is derived from it. Bridges are numbered along the chain shown (N, C = ends). [ ]: non-standard residue; d: D form. The star is where a group is joined. X1 = NC(=O)[C@@H](CS[*:2])C(=O)[*:1]; Heptanoyl(6-Me) = CC(C)CCCCC(=O)*; X2 = CC[C@H](C)[C@H](NO*)C(=O)O; Octanoyl = CCCCCCCC(=O)*; Dab = NCC[C@H](N)C(=O)O
# Legend:
# [1] = system: Escherichia coli; assay: Antimicrobial activity against Escherichia coli; format: functional
# [2] = system: Salmonella enterica; assay: Antimicrobial activity against Salmonella enterica; format: functional
# [3] = system: Pseudomonas aeruginosa; assay: Antimicrobial activity against Pseudomonas aeruginosa; format: functional, organism-based
# [4] = molecular target: Lipopolysaccharide (LPS); assay: Displacement of dansyl-PMB from LPS by isothermal titration calorimetry
MIC [1],MIC [2],MIC [3] [µM],IC50 [4],Ka [4],SMILES
8 µM,8 µM,16,>= 32 nmol/ml,–,CC(C)C[C@@H]1NC(=O)[C@@H](Cc2ccccc2)NC(=O)[C@H](CCN)NC(=O)[C@@H](NC(=O)[C@H](CCN)NC(=O)[C@@H](NC(=O)[C@H](Cc2ccccc2)NC(=O)O)[C@@H](C)O)CCNC(=O)[C@H]([C@@H](C)O)NC(=O)[C@H](CCN)NC(=O)[C@H](CCN)NC1=O [DESFA-[PHE1]POLYMYXIN B]
1 µM,1 µM,1,6 µM,–,CCCCCCCC(=O)N[C@@H](CCN)C(=O)N[C@H](C(=O)N[C@@H](CCN)C(=O)N[C@H]1CCNC(=O)[C@H]([C@@H](C)O)NC(=O)[C@H](CCN)NC(=O)[C@H](CCN)NC(=O)[C@H](CC(C)C)NC(=O)[C@@H](C)NC(=O)[C@H](CCN)NC1=O)[C@@H](C)O
2 µM,4 µM,2,26 µM,–,CCCCCCCC(=O)N[C@@H](CCN)C(=O)N[C@H](C(=O)N[C@@H](CCN)C(=O)N[C@H]1CCNC(=O)[C@H]([C@@H](C)O)NC(=O)[C@H](CCN)NC(=O)[C@H](CCNC(C)=O)NC(=O)[C@H](CC(C)C)NC(=O)[C@@H](Cc2ccccc2)NC(=O)[C@H](CCN)NC1=O)[C@@H](C)O
128 µM,128 µM,128,30 µM,–,CCCCCCCC(=O)N[C@H]1CCNC(=O)[C@H]([C@@H](C)O)NC(=O)[C@H](CCN)NC(=O)[C@H](CCN)NC(=O)[C@H](CC(C)C)NC(=O)[C@@H](Cc2ccccc2)NC(=O)[C@H](CCN)NC1=O
256 µM,≥ 512 µM,≥ 512,20 µM,–,CCCCCCCC(=O)N[C@@H](CCN)C(=O)N[C@H](C(=O)N[C@@H](CCN)C(=O)N[C@H]1CCNC(=O)[C@H]([C@@H](C)O)NC(=O)[C@H](CCN)NC(=O)[C@H](CCN)NC(=O)CNC(=O)CNC(=O)[C@H](CCN)NC1=O)[C@@H](C)O (Octanoyl-[Dab]T[Dab][Dab][Dab]GG[Dab][Dab]T; lactam 4-C)
64 µM,128 µM,128,>= 32 nmol/ml,–,CC(C)C[C@@H]1NC(=O)[C@@H](Cc2ccccc2)NC(=O)[C@H](CCN)NC(=O)[C@@H](NC(=O)[C@H](CCN)NC(=O)[C@@H](NC(=O)[C@H](C)NC(=O)[C@@H](C)NC(=O)[C@H](C)N)[C@@H](C)O)CCNC(=O)[C@H]([C@@H](C)O)NC(=O)[C@H](CCN)NC(=O)[C@H](CCN)NC1=O [DESFA-[ALA-ALA-ALA1]POLYMYXIN B]
≥ 128 µM and ≥ 300 µg/mL,256 µM,64,21 µM,–,CC(C)C[C@@H]1NC(=O)[C@@H](Cc2ccccc2)NC(=O)[C@H](CCN)NC(=O)[C@@H](NC(=O)[C@@H](N)CCN)CCNC(=O)[C@H]([C@@H](C)O)NC(=O)[C@H](CCN)NC(=O)[C@H](CCN)NC1=O [POLYMYXIN B OCTAPEPTIDE] (H-[Dab][Dab][Dab][dF]L[Dab][Dab]T; lactam 2-C)
1 µM,1 µM,1,9 µM,–,CC(C)CCCCC(=O)N[C@@H](CCN)C(=O)N[C@H](C(=O)N[C@@H](CCN)C(=O)N[C@H]1CCNC(=O)[C@H]([C@@H](C)O)NC(=O)[C@H](CCN)NC(=O)[C@H](CCN)NC(=O)[C@H](CC(C)C)NC(=O)[C@@H](Cc2ccccc2)NC(=O)[C@H](CCN)NC1=O)[C@@H](C)O [POLYMYXIN B2] ({Heptanoyl(6-Me)}-[Dab]T[Dab][Dab][Dab][dF]L[Dab][Dab]T; lactam 4-C)
32 µM,64 µM,32,>= 32 nmol/ml,–,CC(C)C[C@@H]1NC(=O)[C@@H](Cc2ccccc2)NC(=O)[C@H](CCN)NC(=O)[C@@H](NC(=O)[C@H](CCN)NC(=O)[C@@H](NC(=O)[C@H](C)NC(=O)O)[C@@H](C)O)CCNC(=O)[C@H]([C@@H](C)O)NC(=O)[C@H](CCN)NC(=O)[C@H](CCN)NC1=O [DESFA-[ALA1]POLYMYXIN B]
8 µM,16 µM,16,15 µM,–,CC(C)C[C@@H]1NC(=O)[C@@H](Cc2ccccc2)NC(=O)[C@H](CCN)NC(=O)[C@@H](NC(=O)[C@H](CCN)NC(=O)[C@@H](NC(=O)[C@H](CCCNC(=N)N)NC(=O)O)[C@@H](C)O)CCNC(=O)[C@H]([C@@H](C)O)NC(=O)[C@H](CCN)NC(=O)[C@H](CCN)NC1=O [DESFA-[ARG1]POLYMYXIN B]
8 µM,32 µM,0.5,3 µM,–,CC(C)C[C@@H]1NC(=O)[C@@H](Cc2ccccc2)NC(=O)[C@H](CCN)NC(=O)[C@@H](NC(=O)[C@H](CCN)NC(=O)[C@@H](NC(=O)[C@H](CCN)NC(=O)[C@@H](CCN)NC(=O)[C@@H](N)CCN)[C@@H](C)O)CCNC(=O)[C@H]([C@@H](C)O)NC(=O)[C@H](CCN)NC(=O)[C@H](CCN)NC1=O [DESFA-[DAB-DAB-DAB1]POLYMYXIN B]
8 µM and 30 µg/mL,16 µM,4,13 µM,–,CC(=O)N[C@@H](CCN)C(=O)N[C@H](C(=O)N[C@@H](CCN)C(=O)N[C@H]1CCNC(=O)[C@H]([C@@H](C)O)NC(=O)[C@H](CCN)NC(=O)[C@H](CCN)NC(=O)[C@H](CC(C)C)NC(=O)[C@@H](Cc2ccccc2)NC(=O)[C@H](CCN)NC1=O)[C@@H](C)O [DEACYL POLYMYXIN B] (Ac-[Dab]T[Dab][Dab][Dab][dF]L[Dab][Dab]T; lactam 4-C)
2 µM,2 µM,2,12 µM,–,CCCCCCCC(=O)N[C@H](C(=O)N[C@@H](CCN)C(=O)N[C@H]1CCNC(=O)[C@H]([C@@H](C)O)NC(=O)[C@H](CCN)NC(=O)[C@H](CCN)NC(=O)[C@H](CC(C)C)NC(=O)[C@@H](Cc2ccccc2)NC(=O)[C@H](CCN)NC1=O)[C@@H](C)O (stereo in doubt; 231) [Octanoyl Polymixin B nonapeptide]
2 µM,32 µM,4,8 µM,–,CCCCCCCC(=O)N[C@@H](CCN)C(=O)N[C@H](C(=O)N[C@@H](CCN)C(=O)N[C@H]1CCNC(=O)[C@H]([C@@H](C)O)NC(=O)[C@H](CCN)NC(=O)[C@H](CCN)NC(=O)[C@H](C)NC(=O)[C@@H](C)NC(=O)[C@H](CCN)NC1=O)[C@@H](C)O
1 µM,2 µM,2,11 µM,–,CCCCCCCC(=O)N[C@@H](CCN)C(=O)N[C@H](C(=O)N[C@@H](CCN)C(=O)N[C@H]1CCNC(=O)[C@H]([C@@H](C)O)NC(=O)[C@H](CCN)NC(=O)[C@H](CCN)NC(=O)CNC(=O)[C@@H](Cc2ccccc2)NC(=O)[C@H](CCN)NC1=O)[C@@H](C)O
16 µM,64 µM,1,3 µM,–,CC(C)C[C@@H]1NC(=O)[C@@H](Cc2ccccc2)NC(=O)[C@H](CCN)NC(=O)[C@@H](NC(=O)[C@H](CCN)NC(=O)[C@@H](NC(=O)[C@H](CCCNC(=N)N)NC(=O)[C@@H](CCCNC(=N)N)NC(=O)[C@@H](N)CCCNC(=N)N)[C@@H](C)O)CCNC(=O)[C@H]([C@@H](C)O)NC(=O)[C@H](CCN)NC(=O)[C@H](CCN)NC1=O [DESFA-[ARG-ARG-ARG1]POLYMYXIN B]
2 µM,1 µM,1,5 µM,–,CCCCCCCC(=O)N[C@@H](CCN)C(=O)N[C@H](C(=O)N[C@@H](CCN)C(=O)N[C@H]1CCNC(=O)[C@H](C)NC(=O)[C@H](CCN)NC(=O)[C@H](CCN)NC(=O)[C@H](CC(C)C)NC(=O)[C@@H](Cc2ccccc2)NC(=O)[C@H](CCN)NC1=O)[C@@H](C)O (Octanoyl-[Dab]T[Dab][Dab][Dab][dF]L[Dab][Dab]A; lactam 4-C)
0.5 µM,0.5 µM,1,8 µM,–,CCCCCCCC(=O)N[C@@H](CCN)C(=O)N[C@H](C(=O)N[C@@H](CCN)C(=O)N[C@H]1CCNC(=O)[C@@H]([C@@H](C)O)NC(=O)[C@H](CCN)NC(=O)[C@H](CCN)NC(=O)[C@H](CC(C)C)NC(=O)[C@@H](Cc2ccccc2)NC(=O)[C@H](CCN)NC1=O)[C@@H](C)O [POLYMYXIN B3]
4 µM,4 µM,2,19 µM,–,CCCCCCCC(=O)N[C@@H](CCN)C(=O)N[C@H](C(=O)N[C@@H](CCN)C(=O)N[C@H]1CCNC(=O)[C@H]([C@@H](C)O)NC(=O)[C@H](C)NC(=O)[C@H](CCN)NC(=O)[C@H](CC(C)C)NC(=O)[C@@H](Cc2ccccc2)NC(=O)[C@H](CCN)NC1=O)[C@@H](C)O (Octanoyl-[Dab]T[Dab][Dab][Dab][dF]L[Dab]AT; lactam 4-C)
16 µM,32 µM,64,>= 32 nmol/ml,–,CC(C)C[C@H](NC(=O)O)C(=O)N[C@H](C(=O)N[C@@H](CCN)C(=O)N[C@H]1CCNC(=O)[C@H]([C@@H](C)O)NC(=O)[C@H](CCN)NC(=O)[C@H](CCN)NC(=O)[C@H](CC(C)C)NC(=O)[C@@H](Cc2ccccc2)NC(=O)[C@H](CCN)NC1=O)[C@@H](C)O [DESFA-[LEU1]POLYMYXIN B]
–,> 1000 µg/mL,–,–,0.29 10^7/M,CC[C@H](C)[C@H](NOC(=O)[C@H](CCCCN)NC(=O)CNC(=O)[C@@H](NC(=O)[C@H](CCCCN)NC(=O)[C@@H]1CSSC[C@H](C(N)=O)C(=O)N[C@@H](CCCCN)C(=O)N[C@@H](Cc2ccccc2)C(=O)N[C@@H](CC(C)C)C(=O)N[C@@H](CCCCN)C(=O)N[C@@H](CCCCN)C(=O)N1)[C@@H](C)O)C(=O)O (KFLKKCKTGK-X2; linker N-6 via X1)
–,> 1000 µg/mL,–,–,0.56 10^7/M,CC(C)C[C@@H]1NC(=O)[C@H](Cc2ccccc2)NC(=O)[C@H](CCCCN)NC(=O)[C@@H](C(N)=O)CSSC[C@@H](C(=O)N[C@@H](CCCCN)C(=O)N[C@H](C(=O)NCC(=O)N[C@@H](CCCCN)C(=O)O)[C@@H](C)O)NC(=O)[C@H](CCCCN)NC(=O)[C@H](CCCCN)NC1=O (KFLKKCKTGK-OH; linker N-6 via X1)
–,> 1000 µg/mL,–,–,1.15 10^5/M,CC(C)C[C@@H]1NC(=O)[C@H](Cc2ccccc2)NC(=O)[C@H](CCCCN)NC(=O)[C@@H](C(N)=O)CSSC[C@@H](C(N)=O)NC(=O)[C@H](CCCCN)NC(=O)[C@H](CCCCN)NC1=O (KFLKKC-NH2; linker N-6 via X1)

# Reference: ChEMBL document CHEMBL1156251, “Structure--activity relationships of polymyxin antibiotics” (J Med Chem, 2010)
